According to ChEMBL document CHEMBL1158580, “Novel 1,3,5-triphenyl-2-pyrazolines as anti-infective agents” (2010):
Values after ≈ are worked out from the molar mass of the structure shown.

Experiments:
[1] = system: Aspergillus niger; assay: Antifungal activity against Aspergillus niger NCIM 596 assessed as fungal growth inhibition at 2 mg/ml by microdilution method; type: functional
[2] = system: Fusarium proliferatum; assay: Antifungal activity against Fusarium proliferatum NCIM 1105 assessed as fungal growth inhibition at 2 mg/ml by microdilution method; type: functional
[3] = system: Proteus vulgaris; assay: Antibacterial activity against Proteus vulgaris NCIM 2813 by microdilution method; type: functional
[4] = system: Klebsiella aerogenes; assay: Antibacterial activity against Enterobacter aerogenes NCIM 5139 by microdilution method; type: functional
[5] = system: Candida tropicalis; assay: Antifungal activity against Candida tropicalis NCIM 3556 assessed as fungal growth inhibition at 2 mg/ml by microdilution method; type: functional
[6] = system: Escherichia coli; assay: Antibacterial activity against Escherichia coli NCIM 2931 by microdilution method; type: functional
[7] = system: Mycobacterium tuberculosis; assay: Antimycobacterial activity against Mycobacterium tuberculosis H37Rv assessed as reduction in relative light units at 100 ug/ml after 72 hrs by luciferase reporter phage assay; type: functional; design: scale not given: the % may be the effect or the level left
[8] = system: Mycobacterium tuberculosis; assay: Antimycobacterial activity against Mycobacterium tuberculosis H37Rv assessed as reduction in relative light units at 50 ug/ml after 72 hrs by luciferase reporter phage assay; type: functional; design: scale not given: the % may be the effect or the level left
[9] = system: Salmonella enterica; assay: Antibacterial activity against Salmonella typhi NCIM 2501 by microdilution method; type: functional, Salmonella enterica subsp. enterica serovar Typhi
[10] = system: Bacillus subtilis; assay: Antibacterial activity against Bacillus subtilis NCIM 2718 by microdilution method; type: functional
[11] = system: Aspergillus flavus; assay: Antifungal activity against Aspergillus flavus NCIM 594 assessed as fungal growth inhibition at 2 mg/ml by microdilution method; type: functional
[12] = system: Staphylococcus aureus; assay: Antibacterial activity against Staphylococcus aureus NCIM 5021 by microdilution method; type: functional

Row | SMILES | inhibition at 2000 µg/mL [1] [%] | inhibition at 2000 µg/mL [2] [%] | MIC [3] [µM] | MIC [4] [µM] | inhibition at 2000 µg/mL [5] [%] | MIC [6] [µM] | Activity [7] [%] | Activity [8] [%] | MIC [9] [µM] | MIC [10] [µM] | inhibition at 2000 µg/mL [11] [%] | MIC [12] [µM]
1 | COc1ccc(C2=NN(c3ccccc3)C(c3ccc(SC)cc3)C2)cc1 (configuration not stated) | 81.1 | 65.9 | 334 (≈ 125 µg/mL) | 334 (≈ 125 µg/mL) | 92.9 | 83 (≈ 31.1 µg/mL) | 24.87 | 0 | 0.334 (≈ 0.125 µg/mL) | 334 (≈ 125 µg/mL) | 48.4 | 668 (≈ 250 µg/mL)
2 | CSc1ccc(C2CC(c3ccc(F)cc3)=NN2c2ccccc2)cc1 (configuration not stated) | 97.3 | 98.7 | 345 (≈ 125 µg/mL) | 345 (≈ 125 µg/mL) | 97.4 | 22 (≈ 7.97 µg/mL) | 4.75 | 0 | 0.69 (≈ 0.25 µg/mL) | 172 (≈ 62.3 µg/mL) | 94.8 | 690 (≈ 250 µg/mL)
3 | COc1cccc(C2=NN(c3ccccc3)C(c3ccc(SC)cc3)C2)c1 (configuration not stated) | 90.1 | 96.1 | 334 (≈ 125 µg/mL) | 334 (≈ 125 µg/mL) | 98.7 | 167 (≈ 62.5 µg/mL) | 26.85 | 7.45 | 0.334 (≈ 0.125 µg/mL) | 334 (≈ 125 µg/mL) | 51.5 | 668 (≈ 250 µg/mL)
4 | CSc1ccc(C2CC(c3cccc(Br)c3)=NN2c2ccccc2)cc1 (configuration not stated) | 64.6 | 90.1 | 295 (≈ 125 µg/mL) | 295 (≈ 125 µg/mL) | 65.1 | 295 (≈ 125 µg/mL) | 20.17 | 8.55 | 0.295 (≈ 0.125 µg/mL) | 295 (≈ 125 µg/mL) | 91.4 | 591 (≈ 250 µg/mL)
5 | CSc1ccc(C2CC(c3cccc(N)c3)=NN2c2ccccc2)cc1 (configuration not stated) | 84.4 | 93.6 | 347 (≈ 125 µg/mL) | 347 (≈ 125 µg/mL) | 86.1 | 173 (≈ 62.2 µg/mL) | 13.79 | 0 | 0.347 (≈ 0.125 µg/mL) | 347 (≈ 125 µg/mL) | 25 | 694 (≈ 249 µg/mL)
6 | CCOc1ccc(C2=NN(c3ccccc3)C(c3ccc(SC)cc3)C2)cc1 (configuration not stated) | 85.3 | 94.3 | 322 (≈ 125 µg/mL) | 322 (≈ 125 µg/mL) | 95.4 | 161 (≈ 62.6 µg/mL) | 48.35 | 36.44 | 0.322 (≈ 0.125 µg/mL) | 322 (≈ 125 µg/mL) | 38.2 | 643 (≈ 250 µg/mL)
7 | CSc1ccc(C2CC(c3cccc4c3OCO4)=NN2c2ccccc2)cc1 (configuration not stated) | 71.4 | 81.3 | 322 (≈ 125 µg/mL) | 322 (≈ 125 µg/mL) | 17.1 | 80 (≈ 31.1 µg/mL) | 27.81 | 10.59 | 0.322 (≈ 0.125 µg/mL) | 322 (≈ 125 µg/mL) | 31.2 | 644 (≈ 250 µg/mL)
8 | COc1ccc(C2=NN(c3ccccc3)C(c3ccc(SC)cc3)C2)cc1OC (configuration not stated) | 9.65 | 93.2 | 309 (≈ 125 µg/mL) | 155 (≈ 62.7 µg/mL) | 9.12 | 155 (≈ 62.7 µg/mL) | 30.3 | 32.66 | 0.309 (≈ 0.125 µg/mL) | 309 (≈ 125 µg/mL) | 63.8 | 618 (≈ 250 µg/mL)
9 | CSc1ccc(C2CC(c3ccccc3Cl)=NN2c2ccccc2)cc1 (configuration not stated) | 98.3 | 93.6 | 330 (≈ 125 µg/mL) | 165 (≈ 62.5 µg/mL) | 91 | 165 (≈ 62.5 µg/mL) | 0 | 0 | 0.33 (≈ 0.125 µg/mL) | 330 (≈ 125 µg/mL) | 88.2 | 330 (≈ 125 µg/mL)
10 | CSc1ccc(C2CC(c3cccc([N+](=O)[O-])c3)=NN2c2ccccc2)cc1 (configuration not stated) | 65.2 | 56.9 | 321 (≈ 125 µg/mL) | 321 (≈ 125 µg/mL) | 45.9 | 160 (≈ 62.3 µg/mL) | 5.7 | 0 | 0.321 (≈ 0.125 µg/mL) | 321 (≈ 125 µg/mL) | 19 | 642 (≈ 250 µg/mL)
11 | CS(=O)(=O)c1ccc(C2CC(c3ccccc3)=NN2c2ccccc2)cc1 (configuration not stated) | 47.2 | 97.6 | 332 (≈ 125 µg/mL) | 332 (≈ 125 µg/mL) | 30.6 | 166 (≈ 62.5 µg/mL) | 50.71 | 1.7 | 0.332 (≈ 0.125 µg/mL) | 332 (≈ 125 µg/mL) | 65.8 | 664 (≈ 250 µg/mL)
12 | CS(=O)(=O)c1ccc(C2CC(c3ccc(Cl)cc3)=NN2c2ccccc2)cc1 (configuration not stated) | 97.5 | 88.3 | 304 (≈ 125 µg/mL) | 304 (≈ 125 µg/mL) | 95.6 | 152 (≈ 62.5 µg/mL) | 15.46 | 0.76 | 0.304 (≈ 0.125 µg/mL) | 304 (≈ 125 µg/mL) | 88.4 | 608 (≈ 250 µg/mL)
13 | CSc1ccc(C2CC(c3ccc(Br)cc3)=NN2c2ccccc2)cc1 (configuration not stated) | 88.5 | 34.3 | 295 (≈ 125 µg/mL) | 295 (≈ 125 µg/mL) | 88.1 | 148 (≈ 62.7 µg/mL) | 18.55 | 0 | 0.295 (≈ 0.125 µg/mL) | 295 (≈ 125 µg/mL) | 28.2 | 591 (≈ 250 µg/mL)
14 | CSc1ccc(C2CC(c3ccccc3)=NN2c2ccccc2)cc1 (configuration not stated) | 93.5 | 94.1 | 726 (≈ 250 µg/mL) | 363 (≈ 125 µg/mL) | 73.1 | 45 (≈ 15.5 µg/mL) | 17.65 | 0 | 0.726 (≈ 0.25 µg/mL) | 363 (≈ 125 µg/mL) | 30.5 | 726 (≈ 250 µg/mL)
15 | CSc1ccc(C2CC(c3ccc(C)cc3)=NN2c2ccccc2)cc1 (configuration not stated) | 93 | 83.8 | 349 (≈ 125 µg/mL) | 349 (≈ 125 µg/mL) | 95.3 | 174 (≈ 62.4 µg/mL) | 19.26 | 0 | 0.349 (≈ 0.125 µg/mL) | 349 (≈ 125 µg/mL) | 38.6 | 697 (≈ 250 µg/mL)
16 | CSc1ccc(C2CC(c3ccc(Cl)cc3)=NN2c2ccccc2)cc1 (configuration not stated) | 93 | 72.9 | 660 (≈ 250 µg/mL) | 330 (≈ 125 µg/mL) | 94.4 | 82 (≈ 31.1 µg/mL) | 17.43 | 0 | 0.33 (≈ 0.125 µg/mL) | 330 (≈ 125 µg/mL) | 13.1 | 660 (≈ 250 µg/mL)
